Results: ChEMBL document CHEMBL3853265 (Medchemcomm, 2016)

Columns and labels:
[1] = Mutagenicity in […] by Ames test in absence of […]; assay type: toxicity
[2] = Renal clearance in dog at 1 mg/kg, iv and 3 mg/kg, po relative to GFR x fraction unbound; assay type: ADME, organism-based, Canis lupus familiaris; settings: in vivo
[3] = Plasma clearance in rat at 1 mg/kg, iv and 3 mg/kg, po; assay type: ADME, organism-based
[4] = Volume of distribution at steady state in rat at 1 mg/kg, iv and 3 mg/kg, po; assay type: ADME, organism-based; settings: in vivo, read-out: Vdss
[5] = Intrinsic clearance in human liver microsomes; assay type: ADME; settings: read-out: CLH
[6] = Intrinsic clearance in human hepatocytes assessed per 10^6 cells; assay type: ADME, cell-based, Hepatocyte
Rattus norvegicus = assay: Toxicity in po dosed Wistar Han rat assessed as drug tolerance administered for 14 days; assay type: organism-based; settings: in vivo, 336 h
[7] = Renal clearance in rat at 1 mg/kg, iv and 3 mg/kg, po relative to GFR x fraction unbound; assay type: ADME, organism-based; settings: in vivo
[8] = biological target: T1, Solute carrier organic anion transporter family member 2B1 (Homo sapiens, UniProt O94956); assay: Drug uptake assessed as human OATP2B1-mediated drug accumulation by cell-based assay relative to wild type protein; assay type: ADME
T1 sequence (O94956 whole entry): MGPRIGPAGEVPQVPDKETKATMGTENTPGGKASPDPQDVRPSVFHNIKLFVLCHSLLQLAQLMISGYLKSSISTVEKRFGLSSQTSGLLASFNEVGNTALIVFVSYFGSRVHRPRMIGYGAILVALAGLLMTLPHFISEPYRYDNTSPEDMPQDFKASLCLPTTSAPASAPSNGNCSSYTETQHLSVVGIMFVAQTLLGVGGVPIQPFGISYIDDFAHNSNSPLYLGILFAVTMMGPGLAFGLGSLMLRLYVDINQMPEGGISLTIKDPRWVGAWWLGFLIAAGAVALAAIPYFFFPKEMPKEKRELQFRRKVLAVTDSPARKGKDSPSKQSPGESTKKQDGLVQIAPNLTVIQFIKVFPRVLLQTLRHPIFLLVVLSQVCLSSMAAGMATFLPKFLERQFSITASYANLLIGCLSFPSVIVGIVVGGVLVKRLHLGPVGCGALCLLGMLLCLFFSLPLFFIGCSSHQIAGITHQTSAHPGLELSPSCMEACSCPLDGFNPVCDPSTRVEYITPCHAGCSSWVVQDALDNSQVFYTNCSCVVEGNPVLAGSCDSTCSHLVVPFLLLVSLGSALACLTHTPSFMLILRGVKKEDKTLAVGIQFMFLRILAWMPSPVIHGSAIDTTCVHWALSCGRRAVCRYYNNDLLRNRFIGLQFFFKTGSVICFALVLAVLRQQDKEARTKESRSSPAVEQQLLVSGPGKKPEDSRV

[9] = Oral bioavailability in rat at 3 mg/kg; assay type: ADME, organism-based; settings: in vivo
[10] = biological target: Sodium channel protein type 5 subunit alpha (Homo sapiens, UniProt Q14524); assay: Inhibition of human NaV1.5 expressed in HEK293 cells by patch clamp method; assay type: cell-based
[11] = biological target: T2, Solute carrier organic anion transporter family member 1B1 (Homo sapiens, UniProt Q9Y6L6); assay: Drug uptake assessed as human OATP1B1-mediated drug accumulation by cell-based assay relative to wild type protein; assay type: ADME
T2 sequence (Q9Y6L6 whole entry): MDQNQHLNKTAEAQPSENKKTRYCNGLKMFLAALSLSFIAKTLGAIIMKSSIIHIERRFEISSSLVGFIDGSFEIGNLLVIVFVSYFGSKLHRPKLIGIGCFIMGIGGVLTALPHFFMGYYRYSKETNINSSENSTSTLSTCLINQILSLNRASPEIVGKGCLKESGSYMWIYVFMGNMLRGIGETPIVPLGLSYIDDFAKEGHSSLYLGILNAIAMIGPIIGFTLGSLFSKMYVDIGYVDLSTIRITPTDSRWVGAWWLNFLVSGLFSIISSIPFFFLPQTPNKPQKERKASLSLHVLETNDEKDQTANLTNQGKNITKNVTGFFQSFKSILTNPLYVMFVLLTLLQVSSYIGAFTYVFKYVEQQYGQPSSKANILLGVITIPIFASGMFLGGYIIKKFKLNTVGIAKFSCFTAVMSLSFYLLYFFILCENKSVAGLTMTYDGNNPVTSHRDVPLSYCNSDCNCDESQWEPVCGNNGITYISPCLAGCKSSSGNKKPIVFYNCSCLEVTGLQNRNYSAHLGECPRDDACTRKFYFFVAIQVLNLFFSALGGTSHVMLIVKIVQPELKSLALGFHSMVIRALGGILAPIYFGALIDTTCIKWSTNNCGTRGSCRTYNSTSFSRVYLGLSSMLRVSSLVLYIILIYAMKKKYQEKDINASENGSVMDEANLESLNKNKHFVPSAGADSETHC

[12] = biological target: T3, Solute carrier organic anion transporter family member 1B3 (Homo sapiens, UniProt Q9NPD5); assay: Drug uptake assessed as human OATP1B3-mediated drug accumulation by cell-based assay relative to wild type protein; assay type: ADME
T3 sequence (Q9NPD5 whole entry): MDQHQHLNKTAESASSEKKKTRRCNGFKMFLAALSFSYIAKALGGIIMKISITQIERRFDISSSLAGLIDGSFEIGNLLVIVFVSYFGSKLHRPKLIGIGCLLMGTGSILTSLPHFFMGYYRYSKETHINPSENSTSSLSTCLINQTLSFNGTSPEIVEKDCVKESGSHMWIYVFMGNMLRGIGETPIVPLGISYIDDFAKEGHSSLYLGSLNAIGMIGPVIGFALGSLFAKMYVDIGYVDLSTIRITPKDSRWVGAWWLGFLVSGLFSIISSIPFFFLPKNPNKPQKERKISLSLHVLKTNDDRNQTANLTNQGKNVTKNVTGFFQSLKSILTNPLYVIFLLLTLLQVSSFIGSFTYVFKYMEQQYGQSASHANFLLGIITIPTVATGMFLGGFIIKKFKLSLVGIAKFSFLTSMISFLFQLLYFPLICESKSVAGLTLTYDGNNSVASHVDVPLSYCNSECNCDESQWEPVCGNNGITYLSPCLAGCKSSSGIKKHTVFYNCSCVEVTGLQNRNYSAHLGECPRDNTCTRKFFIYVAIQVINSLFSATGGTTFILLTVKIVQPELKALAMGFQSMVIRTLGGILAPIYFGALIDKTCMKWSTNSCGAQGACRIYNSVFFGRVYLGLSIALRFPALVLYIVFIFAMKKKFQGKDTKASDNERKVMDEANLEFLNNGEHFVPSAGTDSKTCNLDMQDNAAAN

[13] = Mutagenicity in […] by Ames test in presence of […]; assay type: toxicity

Chain of Sodium channel protein type 5 subunit alpha (Q14524 whole entry): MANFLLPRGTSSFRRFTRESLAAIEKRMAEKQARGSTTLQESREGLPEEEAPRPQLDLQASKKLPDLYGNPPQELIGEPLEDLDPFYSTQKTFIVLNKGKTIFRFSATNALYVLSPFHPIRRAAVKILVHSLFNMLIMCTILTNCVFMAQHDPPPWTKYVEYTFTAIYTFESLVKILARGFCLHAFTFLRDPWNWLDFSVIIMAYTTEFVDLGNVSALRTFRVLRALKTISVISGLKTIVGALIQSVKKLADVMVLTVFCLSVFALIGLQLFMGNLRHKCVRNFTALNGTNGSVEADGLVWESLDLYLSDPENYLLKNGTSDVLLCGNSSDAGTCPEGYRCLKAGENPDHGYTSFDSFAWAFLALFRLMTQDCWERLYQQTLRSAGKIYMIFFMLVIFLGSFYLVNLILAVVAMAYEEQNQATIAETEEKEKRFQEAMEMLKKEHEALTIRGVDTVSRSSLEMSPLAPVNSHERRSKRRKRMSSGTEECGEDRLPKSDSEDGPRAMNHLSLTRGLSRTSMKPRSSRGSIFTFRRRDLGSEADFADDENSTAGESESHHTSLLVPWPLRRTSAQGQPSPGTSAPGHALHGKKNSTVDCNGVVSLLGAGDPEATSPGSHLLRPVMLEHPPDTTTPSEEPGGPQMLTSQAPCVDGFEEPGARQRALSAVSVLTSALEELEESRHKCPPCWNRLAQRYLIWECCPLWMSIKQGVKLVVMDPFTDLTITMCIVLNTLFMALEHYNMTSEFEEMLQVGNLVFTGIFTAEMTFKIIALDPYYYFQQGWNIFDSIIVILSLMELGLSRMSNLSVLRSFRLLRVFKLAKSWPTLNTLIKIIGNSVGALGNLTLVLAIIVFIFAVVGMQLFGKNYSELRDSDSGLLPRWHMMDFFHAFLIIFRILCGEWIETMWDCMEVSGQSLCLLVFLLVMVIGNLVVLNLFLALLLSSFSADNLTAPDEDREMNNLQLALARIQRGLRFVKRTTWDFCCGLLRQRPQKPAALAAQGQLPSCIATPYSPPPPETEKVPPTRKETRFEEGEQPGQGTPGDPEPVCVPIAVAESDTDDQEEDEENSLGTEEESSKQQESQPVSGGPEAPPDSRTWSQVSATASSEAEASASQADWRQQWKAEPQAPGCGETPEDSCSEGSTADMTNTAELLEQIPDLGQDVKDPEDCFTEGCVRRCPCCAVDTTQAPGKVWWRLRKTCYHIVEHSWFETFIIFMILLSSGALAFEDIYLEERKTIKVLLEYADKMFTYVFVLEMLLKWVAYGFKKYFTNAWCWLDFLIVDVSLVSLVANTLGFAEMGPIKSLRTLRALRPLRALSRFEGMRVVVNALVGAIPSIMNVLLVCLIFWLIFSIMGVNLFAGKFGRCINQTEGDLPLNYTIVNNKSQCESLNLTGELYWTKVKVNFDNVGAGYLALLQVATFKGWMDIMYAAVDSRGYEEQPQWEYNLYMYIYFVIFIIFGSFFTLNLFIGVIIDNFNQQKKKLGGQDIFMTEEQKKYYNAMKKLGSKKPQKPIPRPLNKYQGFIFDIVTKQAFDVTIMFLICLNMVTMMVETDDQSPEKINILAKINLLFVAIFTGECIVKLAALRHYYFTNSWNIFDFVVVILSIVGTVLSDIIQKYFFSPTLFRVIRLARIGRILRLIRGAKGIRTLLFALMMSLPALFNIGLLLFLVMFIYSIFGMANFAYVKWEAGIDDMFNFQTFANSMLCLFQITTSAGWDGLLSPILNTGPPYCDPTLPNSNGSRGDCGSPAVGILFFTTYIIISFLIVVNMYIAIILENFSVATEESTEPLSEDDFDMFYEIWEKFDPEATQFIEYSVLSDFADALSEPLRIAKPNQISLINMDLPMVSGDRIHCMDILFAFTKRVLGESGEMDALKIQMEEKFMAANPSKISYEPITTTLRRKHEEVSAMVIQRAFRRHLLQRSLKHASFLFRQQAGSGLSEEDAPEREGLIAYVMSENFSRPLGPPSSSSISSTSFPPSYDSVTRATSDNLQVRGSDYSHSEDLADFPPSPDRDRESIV

With `O=S(=O)(Nc1ccc(C(F)(F)F)nc1)c1ccccc1C(F)(F)F` the Activity [1] was “Non-Toxic”, the CL [2] was less than 2% and the clearance [3] was 0.0108 L/h/kg. It also gave a Vd [4] of 0.4 L/kg, a microsomal CLint [5] of less than 8 µL/min/mg and a CLH [6] of less than 6 µL/min/1e6 cells. For the same molecule, the Activity (Rattus norvegicus) was “<= 100 mg kg-1”, the CL [7] was less than 2% and the “fold change (FC)” value [8] was 1.145. For the same molecule, the bioavailability [9] was 98%, the IC50 [10] was greater than 100 µM and the “fold change (FC)” value [11] was 0.902. The “fold change (FC)” value [12] was 0.582 and the Activity [13] was “Non-Toxic”.
With `O=S(=O)(Nc1cncc(C(F)(F)F)c1)c1ccccc1C(F)(F)F` the Activity [1] was “Non-Toxic”, the CL [2] was less than 2% and the clearance [3] was 0.033 L/h/kg. For the same molecule, the Vd [4] was 0.14 L/kg, the microsomal CLint [5] was 11 µL/min/mg and the CLH [6] was 6 µL/min/1e6 cells. The Activity (Rattus norvegicus) was “<= 100 mg/kg/day”, the CL [7] was less than 2% and the “fold change (FC)” value [8] was 0.961. For the same molecule, the bioavailability [9] was 150%, the IC50 [10] was greater than 30 µM and the “fold change (FC)” value [11] was 0.573. For the same molecule, the “fold change (FC)” value [12] was 0.702 and the Activity [13] was “Non-Toxic”.
